The values below come from patent publication EP1640447A1, “BIOACTIVE PEPTIDE-PRODUCING STRAINS OF i ENTEROCOCCUS FAECALIS /i , BIOACTIVE PEPTIDES AND APPLICATIONS THEREOF” (Grupo Leche Pascual S.A., priority 2003, dated 2004).

Assay [1] deals with spontaneously hypertensive rats (SHR). As to the kind of experiment: Blood pressure (tail cuff) after acute intragastric administration in spontaneously hypertensive rats. It is filed as in vivo. Particulars: Captopril 50 mg/kg; for variation of diastolic blood pressure / variation of systolic blood pressure: mean ± standard error. As for the experimental part: (§1) Male SHR and WKY rats of 17-20 weeks of age and weight comprised between 250 and 300 g were used, obtained from Charles River Laboratories Espana S.A.. The rats were kept at a stable ambient temperature of 23°C and with 12 hour light-dark cycles, taking water and food at will. The measurement of blood pressure in these animals was carried out by means of a modification of the tail cuff technique, originally disclosed by Buñag (Buñag RD. 1973. J Appl Physiol 34:79). This technique usually allows obtaining only systolic blood pressure (SBP) measurements; however, the equipment used in this study (Le50001 Letica model) allows differentiating the SBP and the diastolic blood pressure (DBP) of the animals, as it automatically provides the digital value of both parameters. For this reason the modification of the SBP and the DBP produced by the acute administration of the fermented milks and the peptides were tested in this study. Before placing the cuff on the tails of the rats, these were exposed to a temperature close to 30°C in order to facilitate the dilation of the caudal artery, and they were lightly anaesthetized with diethyl ether according to the process disclosed by Dietz et al. (Dietz R, Schömig A, Haebara H et al. 1978. Circ Res 43: I98-I106) in order to minimize the effect of stress on the measurement. Furthermore, in order to ensure the reliability of the measurement, the animals were familiarized with the process 2 weeks prior to performing the test in question.
The administration of the products to be tested was performed by means of intragastric probe in a time margin comprised between 9 and 10 am. The SHR rats used for the study had at that time SBP and DBP values comprised respectively between 240 and 290 mm Hg, and between 200 and 250 mm Hg. The WKY rats used for the study had at that time SBP and DBP values comprised respectively between 160 and 200 mm Hg, and between 100 and 140 mm Hg. SBP and DBP measurements were taken periodically in the animals, every 2 hours, up to 8 hours post-administration of the products to be tested; an additional measurement of both variables (SBP and DBP) was taken 24 hours after administration of said products.
In the case of the fermented milks, the supernatant (whey) obtained by centrifugation at 20,000 x g for 10 minutes of the milk fermented and pasteurized at 75°C for 1 minute following the process described in Example 2 was used as an administration product. From the corresponding supernatant a single administration of 5 mL/kg of animal body weight was used.
In the tests with peptide SEQ. ID. NO: 1 a single administration was also performed, and the dose used (2 mg/kg) was equivalent in ACEI activity units to the 5 mL/kg dose of supernatant of the milks fermented by E. faecalis CECT 5727, E. faecalis CECT 5728, E. faecalis CECT 5826 and E. faecalis CECT 5827. […] The most significant results were obtained with the peptide identified by SEQ. ID. NO: 1.
As a negative control (to establish the circadian variation of the SBP and the DBP in probed rats) the measurements obtained in rats that were administered 1 mL of water by intragastric probe were used. As a positive control (to establish the effect on the SBP and the DBP of a prototype ACEI drug, such as Captopril) the measurements of […] obtained in that were administered 50 mg /kg of Captopril by intragastric probe were used. This dose of Captopril was administered to each rat in a volume of 1 mL.
The results obtained were grouped and the mean ± standard error of the mean (SEM) for a minimum of 7 homogeneous tests was obtained. The data from treated animals was contrasted to one another and with the data considered as negative control. […]

Assay [2] has as its system Wistar-Kyoto rats (WKY). The assay can be described thus: Blood pressure (tail cuff) after acute intragastric administration in normotensive Wistar-Kyoto rats. It is filed as in vivo. Conditions: whey 5 mL/kg, Captopril 50 mg/kg, LSD test at each time. As for the experimental part: as §1, with “Furthermore, in order to ensure the reliability of the measurement, the animals were familiarized with the process 2 weeks prior to performing the test in question.” left out

The mark [3] stands for this setting: Time 2 h after single intragastric administration, whey 5 mL/kg.
Where [4] appears, read: Time 4 h after single intragastric administration, whey 5 mL/kg.
The mark [5] stands for this setting: Time 6 h after single intragastric administration, whey 5 mL/kg.
Where [6] appears, read: Time 8 h after single intragastric administration, whey 5 mL/kg.
Where [7] appears, read: Time 24 h after single intragastric administration, whey 5 mL/kg.
Setting [8] is: single intragastric administration, whey 5 mL/kg, peptide 2 mg/kg.

Each structure is given as a SMILES string. Marks after values point to notes of the source that are not given here.

Take `C[C@H](CS)C(=O)N1CCC[C@H]1C(=O)O` [Captopril]: the “time after administration of maximum reduction / smallest values of DBP” value in assay [1] (peptide 2 mg/kg, intragastric) worked out at 4 h. In assay [1] (whey 5 mL/kg, peptide 2 mg/kg, intragastric), the “time after administration of maximum reduction / smallest values of SBP” value is 6 h. The “variation of diastolic blood pressure” value in assay [1] (setting [3]) is reported as -28.29±2.40^a; in assay [1] (setting [4]), -34.90±5.34^a; in assay [1] (setting [5]) it was -28.63±5.77^a; in assay [1] (setting [6]), -26.67±7.94^a; in assay [1] (setting [7]) it was 1.37±1.02^a. For the same compound, the “variation of systolic blood pressure” value in assay [1] (setting [3]) is -36.08±4.52^a; in assay [1] (setting [4]), -51.98±5.36^a; in assay [1] (setting [5]), -54.19±5.11^a; in assay [1] (setting [6]) it was -35.44±4.70^a; in assay [1] (setting [7]), 1.23±1.49^a. Also, in assay [1] (setting [8]), the “reduction in DBP (in words)” value was “pronounced reduction”. Besides, in assay [1] (setting [8]), the “reduction in SBP (in words)” value was “pronounced reduction”. Moreover, in assay [2], the “changes in DBP” value is recorded as “no significant differences”. For the same compound, in assay [2], the “changes in SBP” value is “no significant differences”.
